Assay results reported in publication PMC11530130, “Peripherally restricted PICK1 inhibitor mPD5 ameliorates pain behaviors in murine inflammatory and neuropathic pain models” (JCI Insight, 2024).
Values joined by “and” are separate entries in the source; they are usually repeats but may differ in a detail not shown here. Equal values may be shown once.

Experiments:
[1] = Mass spectrometry biodistribution (plasma, CSF, spinal cord, brain); assay type: in vivo, mouse
Description: K2 tubes at 5 min, 30 min, 1 hour, 5 hours, 12 hours, 24 hours, and 48 hours and centrifuged (app 4 ℃, 3200 g, 10 min) for collection of plasma. Plasma was transferred to 96 well plates and quick-frozen over dry ice and kept at -60 ℃ until LC-MS/MS analysis. For LC-MS/MS analysis plasma with 0.25% Triton X100 in 50% MeOH/water (6 µL) was quenched with 160 µL of IS1 (internal standard in MeOH (Labetalol & tolbutamide & Verapamil & dexamethasone & glyburide & Celecoxib 100 ng/mL for each)) and the mixture was vortexed for 10 min at 800 rpm and centrifuged for 15 min at 3220 × g at 4 ℃. […] Plasma half-lives were determined from three points in the elimination phase. In a separate experiment, biodistribution was assessed (plasma, CSF, spinal cord, whole brain) at two hours after single dose of 10 µmol/kg or one hour after last injection in the repeated administration paradigm (10 µmol/kg followed by four s.c. administrations of 2 µmol/kg with one hour between). […] Plasma, CSF, and tissue samples (kept at 4 ℃) were processed and analysed as described above.
Concentration 10 µmol/kg: Wild type mice were habituated to the experimental room for a minimum of 60 min before initiation of the experiment. […] A video camera placed above the open field recorded the animals’ behaviour and Ethovision XT 13 (Noldus) was used to track the distance travelled by the […]

[2] = Plasma exposure after repeated s.c. administration (10 + 2 + 2 + 2 + 2 μmol/kg), LC-MS/MS; assay type: in vivo, mouse; conditions: 10µmol/kg repeated
PICK1 = PICK1 (Rattus norvegicus, UniProt Q9EP80); assay: Fluorescence polarization competition binding; parameters: Full length rat PICK1 (pET41) was, as described earlier (1), expressed in BL21-DE3-pLysS; made in house; host or cells: E. coli BL21-DE3-pLysS
PICK1, sequence (Q9EP80 whole entry): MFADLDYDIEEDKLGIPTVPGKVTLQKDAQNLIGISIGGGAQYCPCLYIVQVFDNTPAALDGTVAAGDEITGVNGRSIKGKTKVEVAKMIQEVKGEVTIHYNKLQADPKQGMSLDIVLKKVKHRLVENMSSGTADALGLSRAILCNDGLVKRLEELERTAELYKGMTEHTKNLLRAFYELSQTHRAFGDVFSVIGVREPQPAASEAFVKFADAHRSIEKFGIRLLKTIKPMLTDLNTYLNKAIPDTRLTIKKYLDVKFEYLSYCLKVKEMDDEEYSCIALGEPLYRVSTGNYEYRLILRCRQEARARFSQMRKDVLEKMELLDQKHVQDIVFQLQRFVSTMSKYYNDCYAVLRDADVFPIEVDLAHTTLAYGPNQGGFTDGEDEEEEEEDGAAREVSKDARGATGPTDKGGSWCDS
Description: SUPPORTING INFORMATION: Method Section.
Sex as a biological variable.
All peptides were ordered from WuXI AppTec (Shanghai, China) or TAG-Copenhagen […]
Protein expression and purification.
Full length rat PICK1 (pET41) was, as described earlier (1), expressed in BL21-DE3-pLysS and grown at 37 °C, induced at OD600= 0.6 with 1 mM IPTG, and grown for 16 hours at 20 °C.
Cultures were harvested and re-suspended in 50 mM Tris, 125 mM NaCl, 2 mM DTT (Sigma), 1% Triton X-100 (Sigma), 20 µg/mL DNAse 1 and half a tablet of cOmplete protease inhibitor cocktail (Roche) pr. 1 L culture. The resuspended pellets were frozen at -80 °C for later purification. The lysate was cleared by centrifugation (36,000 x g for 30 min at 4 °C), and the supernatant was incubated with Glutathione-Sepharose 4B beads (GE Healthcare) for two hours at 4 °C under gentle rotation and then centrifuged at 4000 x g for 5 min. The supernatant was removed, and the beads were washed twice in 35 mL 50 mM Tris, 125 mM NaCl, 2 mM DTT, and 0.01% Triton-X100. The beads were transferred to PD-10 Bio-Spin® Chromatography columns (Bio-Rad) and washed with an additional 3 column volumes. Each column was sealed and 0.075 U/µL, Novagen® was added for cleavage O/N at 4 °C under gentle rotation. PICK1 was eluted on ice and concentration was measured on a NanoDrop 3000.
Fluorescence polarization binding.
The competition binding assay was carried out using a fixed concentration of PICK1 (0.5 µM) […]
binding surface 96 well plates (Sigma-Aldrich, Ref. no. 3686). The plates were incubated 20 min on ice and the fluorescence polarization was measured on an Omega POLARstar plate reader (BMG LABTECH) using excitation filter of 485 nm and long pass emission filter of 520 nm. The data was plotted and fitted to a competitive binding One Site fit using GraphPad […]
Superdex200 Increase 10/300.

CCCCCCCCCCCCCC(=O)N(CCOCCOCCC(=O)N[C@@H](Cc1c[nH]cn1)C(=O)N[C@@H](Cc1c[nH]c2ccccc12)C(=O)N[C@@H](CC(C)C)C(=O)N[C@@H](CCCCN)C(=O)N[C@H](C(=O)O)C(C)C)CCOCCOCCC(=O)N[C@@H](Cc1c[nH]cn1)C(=O)N[C@@H](Cc1c[nH]c2ccccc12)C(=O)N[C@@H](CC(C)C)C(=O)N[C@@H](CCCCN)C(=O)N[C@H](C(=O)O)C(C)C [mPD5, myristoyl-NPEG4-(HWLKV)2]
level at 1 h ([1]; C57BL/6NRj, mouse, plasma, sc, 10 umol/kg, 1 hour after s.c. 10 μmol/kg, LLOQ = 2 ng/mL, n = 3): 3280 ± 615 ng/mL | detection in CSF, spinal cord, and brain tissue by mass spectrometry ([1]; after s.c. injection in mice): did not detect | Plasma exposure, Fig 7B, individual mice [2]: 2068 and 1389 and 1614 | Ki (PICK1): 3 nM | affinity gain compared with D5 (HWLKV) alone (PICK1; from Ki,app): approximately 1000 fold | affinity gain compared with PD5 (PICK1; from Ki,app): 30 fold
